Experiments:
[1] = test system: Mycobacterium tuberculosis; test: MMV: Screen against Mtb, single point, non replicating, at 25uM; format: functional
[2] = test system: Mycobacterium tuberculosis; test: MMV: Screen against Mtb, single point, replicating, at 25uM; format: functional

| Compound | inhibition at 25 µM [1] | inhibition at 25 µM [2] |
| --- | --- | --- |
| CN(C)CCCNCc1ccc(-c2ccc(F)c(Cl)c2)o1 | 1.91% | 23.9% |
| O=c1nc(C=Cc2ccc(Br)cc2)oc2ccccc12 | -13.3% | 20.6% |
| COc1ccc(-n2ccnc2SCC(=O)Nc2cc(C)ccc2C)c(OC)c1 | 8.89% | 2.95% |
| OC1=C2C(=Nc3ccccc3SC2c2ccc(Br)cc2)c2ccccc21 (stereo not given) | 0.604% | -4.78% |
| Cc1cc(NC(=O)c2cccc(C(F)(F)F)c2)n(-c2nc(-c3ccc4c(c3)OCO4)cs2)n1 | 3.48% | 5.83% |
| CCOc1cc2c(cc1OCC)C(c1cc(Cl)c(O)c(OCC)c1)NCC2 (stereo not given) | -14% | -12.2% |
| COc1ccccc1C(=O)ON=C(N)Cc1cccc2ccccc12 | 32.7% | 52.3% |
| CCOc1cc(CNC(C)C(O)c2ccccc2)cc(Cl)c1OCC (stereo not given) | 9.76% | 18.6% |
| COc1cc(SC)ccc1C(=O)N1CCCC(C)C1 (stereo not given) | 8.89% | 17.4% |
| CC(C)(C)c1ccc(C(=O)Nc2nc3ccccc3s2)cc1 | -0.011% | 54% |
| COc1ccc(C(=O)C(CCC(CNC(C)(C)C)C(=O)c2ccc(OC)cc2)CNC(C)(C)C)cc1 (stereo not given) | 21% | 10.9% |
| O=C(Nc1ccccc1O)c1ccc(Oc2cccc(C(=O)Nc3ccccc3O)c2)cc1 | 11.7% | 11.8% |
| CCN(CC)c1cc(C)c2cc(NC(=O)c3cccc(OC)c3)ccc2n1 | 19.7% | 18.7% |
| CCOC(=O)C1(Cc2ccccc2)CCN(Cc2cccc(OC)c2O)CC1 | 8.77% | 9.17% |
| CCOc1ccc(-n2cc(-c3ccccc3)c3c(SCc4cc(C)ccc4C)ncnc32)cc1 | 21.9% | -0.392% |
| O=C1c2ccccc2-c2nnc(-c3ccc(Br)cc3)cc21 | 1.49% | 9.33% |
| O=C(NCc1ccco1)C1CCN(S(=O)(=O)c2ccc(Cl)cc2)CC1 | 12.4% | 46.4% |
| CCCC(c1nnnn1C1CCCCC1)N1CCN(C(=O)c2ccco2)CC1 (stereo not given) | 5.57% | 20.4% |
| COc1ccc(C(=O)Nc2nonc2-c2ccc(OC)c(OC)c2)cc1Cl | 5.57% | 3.86% |
| OC1CCCCC1C1(NC(=S)Nc2ccccc2)CCCCC1 (stereo not given) | 13.9% | 7.76% |
| Cc1ccc(N2C3c4ccccc4N(S(=O)(=O)c4ccc(C)cc4)C2c2ccccc2N3S(=O)(=O)c2ccc(C)cc2)cc1 | 18% | 4.16% |
| OC(Cn1nnc2ccccc21)Cn1c2ccc(Br)cc2c2cc(Br)ccc21 (stereo not given) | -5.78% | 4.62% |
| COc1ccc(NC(=O)C2c3ccccc3C(=O)N(CC(C)C)C2c2cccs2)cc1 (stereo not given) | 3.3% | 4.77% |
| CCc1ccc(CNCC(O)c2ccccc2)cc1 (stereo not given) | 4.33% | 35.5% |
| COc1cc2c(cc1OC)C1=NNC(=O)C1=NC(C)(C)C2 | 26.7% | 11.3% |
| CC(C)c1ccc(CNCC(O)c2ccccc2)cc1 (stereo not given) | 11.7% | 30.9% |
| Cc1cc(Nc2ccc(Cl)cc2)n2nc(C(F)(F)F)nc2n1 | 10.3% | 9.63% |

| Compound | inhibition at 25 µM [1] | inhibition at 25 µM [2] |
| --- | --- | --- |
| CCn1c2c(c(=N)c3c1CCC3)CCCC2 | 8.24% | 10.1% |
| CCCCCCc1cc(O)c2c3c(c(=O)oc2c1)CCC(C)C3 (stereo not given) | 11.4% | 12.8% |
| N#Cc1nc(Cc2cccc3ccccc23)oc1N1CCN(C(c2ccccc2)c2ccccc2)CC1 | 18.9% | 7.13% |
| c1ccc2c(NCCc3c[nH]c4ccccc34)c3ccccc3nc2c1 | 17.8% | 47.1% |
| CCCCCCc1cc2cc(-c3nc4ccccc4[nH]3)c(=Nc3ccccc3C)oc2cc1O | 28.5% | 4.31% |
| Cc1cc(Nc2ccc3ccccc3c2)n2ncnc2n1 | 19.9% | -2.52% |
| Cc1ccc(C(=O)c2oc3ccc4c(C)cc(=O)oc4c3c2C)cc1 | 5.4% | 1.18% |
| Cn1c(=O)n(C)c2cc(CNCCNc3ccnc4cc(Cl)ccc34)ccc21 | 8.95% | 11.4% |
| CCCCOc1ccc(C(=O)Nc2cc(C)on2)cc1 | 15% | 23.1% |
| CC(C)OCc1cc(CN2CCN(c3cccc(Cl)c3)CC2)c(O)c2ncccc12 | 11.7% | 9.32% |
| COc1ccc(CCN2C(=O)c3[nH]nc(-c4cc(Cl)c(C)cc4O)c3C2c2ccccc2F)cc1 (stereo not given) | 16.2% | -0.705% |
| CN(N=O)C1=C(NC2CCCCC2)C(=O)c2ccccc2C1=O | 7.53% | -2.12% |
| CCCOCc1cc(CN2CCN(c3cccc(Cl)c3)CC2)c(O)c2ncccc12 | 1.85% | 5.25% |
| Cc1ccc(C)c(Cn2c(N3CCC(C(=O)NCc4cccs4)CC3)nc3ccccc32)c1 | 10.4% | 22% |
| COc1ccc2nc(C)cc(Nc3cccc(O)c3)c2c1 | 8.19% | 7.96% |
| Cc1cc(=O)oc2c1ccc1oc(C(=O)c3ccccc3)c(C)c12 | 21.4% | 13.4% |
| CC1CC(C)CN(C(=O)c2ccc(Cl)cc2Cl)C1 (stereo not given) | 9.59% | 14.8% |
| COc1cccc(-c2nn(C)c3sc(C(=O)NCCN4CCN(c5ccccc5F)CC4)cc23)c1 | 14.8% | 29.5% |
| O=C(Nc1ccc(-c2nc3ccccc3[nH]2)cc1)c1ccc(Cl)c(Cl)c1 | 26.5% | 9.8% |
| Cc1ccccc1OCCSc1nc2ccc(NC(=O)c3ccccc3)cc2s1 | 9.66% | 22% |
| COc1cc(OC)c(N(C)C(=O)c2cc3c(s2)-c2ccccc2S(=O)(=O)C3)cc1Cl | 6.97% | 38% |
| COc1ccc(CN2CCN(Cc3ccccc3)CC2)c(O)c1 | -5.78% | 0.392% |
| O=C(c1ccccc1F)N(Cc1ccc(Cl)cc1)c1ccccn1 | 5.4% | 9.78% |
| COc1ccc(CNC(=O)c2cc3c(=O)n4ccccc4nc3n(CCc3ccccc3)c2=N)cc1 | 6.82% | 20.3% |
| CCOC(=O)C1=C(C)N=c2sc(=Cc3ccccc3O)c(=O)n2C1c1ccc(OC)c2ccccc12 (stereo not given) | 24.4% | 4% |
| COc1ccc(C2N(C)c3ccccc3N2C)cc1 | -0.36% | -1.76% |
| CCN(CC)CCCNc1ccnc2cc3ccccc3cc12 | 14.6% | 8.7% |

| Compound | inhibition at 25 µM [1] | inhibition at 25 µM [2] |
| --- | --- | --- |
| Cc1ccc(CSCc2ccc(C(=O)NC3CC3)o2)cc1 | 11.3% | 24.4% |
| Cc1cccc(Nc2nc(N)c3ccccc3n2)c1 | -2.28% | 9.63% |
| CCc1ccc(Nc2cc(C)nc3nc(C)nn23)cc1 | 9.06% | 11.4% |
| O=C(NC1CCCCC1)C(c1cccs1)N(CCc1ccccc1)C(=O)c1ccco1 (stereo not given) | 2.2% | 22.2% |
| COc1ccc2sc(N(Cc3cccnc3)C(=O)c3ccc(C#N)cc3)nc2c1 | 5.22% | 15% |
| COc1ccc(C(=O)C2CC2c2ccc(Cl)cc2)cc1 (stereo not given) | -5.07% | 17.5% |
| CN(C)c1ccc(N2C(N)=NC(N)=NC2(C)C)cc1 | 1.21% | 2.64% |
| COc1ccc(C=C2SC(Nc3ccc(F)cc3)=NC2=O)c(OC)c1 | 7.53% | 23.3% |
| c1ccc(/C2=N/c3ccccc3/N=C(/c3ccccc3)c3ccccc32)cc1 | 23.5% | 22.3% |
| C=C(C)CCC(C)N1CCC(N2CCC(C(=O)NCCc3ccccc3)CC2)CC1 (stereo not given) | 15.2% | -4.8% |
| Cc1ccc(S(=O)(=O)c2c(COC(=O)c3cccc(C)c3)c(-c3ccccc3)nn2C)cc1 | 8.24% | 9.01% |
| COc1ccccc1CNC(=O)CCn1c(=O)[nH]c2ccccc2c1=O | 11.2% | 6.74% |
| CCOc1ccccc1CN1CCc2nc3cc(C(C)(C)C)nn3c(O)c2C1 | 1.04% | 13.9% |
| O=C(Nc1ccc(N2CCCCC2)c(Cl)c1)c1ccc(Br)o1 | 11.9% | 18.9% |
| CCOc1c(Cl)cc(CNCC(O)c2ccccc2)cc1OC (stereo not given) | 6.97% | 11.9% |
| CCOC(=O)c1c(C)n(-c2ccccc2)c2ccc(OC(=O)c3cc(OC)c(OC)c(OC)c3)cc12 | 6.46% | 22.2% |
| Cc1ccc(C2CC(C(F)(F)F)n3nc(C(=O)N4CCN(C(c5ccccc5)c5ccccc5)CC4)cc3N2)cc1 (stereo not given) | 10.5% | 14.3% |
| CN(C)c1ccc(C=Cc2nc(=O)c3ccccc3o2)cc1 | 20.4% | 11.9% |
| CCOC(=O)c1cn(CC)c2cc(N3CCCCC3)c(F)cc2c1=O | 6.27% | 45% |
| CCC(C)NCC(O)(c1ccc(Cl)cc1)c1ccc(Cl)cc1 (stereo not given) | 10.6% | 17.4% |
| O=C(Nc1ccc(CN2CCOCC2)cc1)c1ccc(-c2cc(Cl)ccc2Cl)o1 | 14.5% | 17.1% |
| COc1ccc(C2c3ccc4ccccc4c3Oc3ncn(CCCn4ccnc4)c(=N)c32)cc1OC (stereo not given) | 11.1% | 46.8% |
| COc1ccc(CCNC(=O)c2cc(S(=O)(=O)N3CC(C)CC(C)C3)ccc2Sc2ccc(F)cc2)cc1OC (stereo not given) | 22.6% | -6.51% |
| Cc1ccc(-c2cc3nc4c(c(O)n3n2)CCCC4)cc1 | 21.5% | 14% |
| CCC(=O)Nc1nnc(Cc2ccc(OC)c(OC)c2)s1 | 1.56% | -1.3% |
| Cc1cc(N2CCN(C3CCCC3)CC2)n2c(nc3ccccc32)c1C#N | 11.5% | 7.81% |
